Data as given in ChEMBL document CHEMBL1201861, “Genomics of Drug Sensitity in Cancer screening data, Wellcome Trust Sanger Institute”.

What was measured:
Assay in all cases: cells
HCC38 = assay type: functional, cell-based, Homo sapiens; conditions: Homo sapiens, HCC38;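 note: cell viability assay on the human HCC38 cell line, with IC50 marking the concentration that inhibits cell growth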
Description: SANGER: Inhibition of human HCC38 cell growth in a cell viability assay.

P30-OHK = assay type: functional, cell-based; conditions: Homo sapiens;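 note: growth inhibition of the P30-OHK cell line, read out with a cell viability assay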
Description: SANGER: Inhibition of human P30-OHK cell growth in a cell viability assay.

CGTH-W-1 = assay type: functional, cell-based, Homo sapiens; conditions: Homo sapiens, CGTH-W-1;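 note: growth inhibition of human CGTH-W-1 cells measured by cell viability assay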
Description: SANGER: Inhibition of human CGTH-W-1 cell growth in a cell viability assay.

OE19 = assay type: functional, cell-based, Homo sapiens; conditions: Homo sapiens, OE19;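 note: growth inhibition of OE19 cells, measured through a cell viability read-out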
Description: SANGER: Inhibition of human OE19 cell growth in a cell viability assay.

NCI-H1299 = assay type: functional, cell-based, Homo sapiens; conditions: Homo sapiens, NCI-H1299;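 note: growth inhibition of human NCI-H1299 cells, read out by a cell viability assay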
Description: SANGER: Inhibition of human NCI-H1299 cell growth in a cell viability assay.

CAL-33 = assay type: functional, cell-based, Homo sapiens; conditions: Homo sapiens, CAL-33;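 note: growth inhibition of CAL-33 cells, read out with a cell viability assay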
Description: SANGER: Inhibition of human CAL-33 cell growth in a cell viability assay.

RO82-W-1 = assay type: functional, cell-based, Homo sapiens; conditions: Homo sapiens, RO82-W-1;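 note: growth inhibition of human RO82-W-1 cells, measured with a cell viability assay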
Description: SANGER: Inhibition of human RO82-W-1 cell growth in a cell viability assay.

HCE-T = assay type: functional, cell-based, Homo sapiens; conditions: Homo sapiens, HCE-T;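 note: cell viability assay read-out, reporting inhibition of HCE-T cell growth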
Description: SANGER: Inhibition of human HCE-T cell growth in a cell viability assay.

SK-N-DZ = assay type: functional, cell-based, Homo sapiens; conditions: Homo sapiens, SK-N-DZ;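 note: growth inhibition of the cancer cell line, read out through a viability assay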
Description: SANGER: Inhibition of human SK-N-DZ cell growth in a cell viability assay.

SK-LU-1 = assay type: functional, cell-based, Homo sapiens; conditions: Homo sapiens, SK-LU-1;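 note: cell viability assay measuring growth inhibition of human SK-LU-1 cells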
Description: SANGER: Inhibition of human SK-LU-1 cell growth in a cell viability assay.

CP66-MEL = assay type: functional, cell-based, Homo sapiens; conditions: Homo sapiens, CP66-MEL;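 note: growth inhibition of CP66-MEL cells determined in a cell viability assay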
Description: SANGER: Inhibition of human CP66-MEL cell growth in a cell viability assay.

EKVX = assay type: functional, cell-based, Homo sapiens; conditions: Homo sapiens, EKVX;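 note: growth inhibition of human EKVX cells, read out with a cell viability assay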
Description: SANGER: Inhibition of human EKVX cell growth in a cell viability assay.

T47D = assay type: functional, cell-based, Homo sapiens; conditions: Homo sapiens, T47D;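 note: growth inhibition of human T47D cells, measured with a cell viability assay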
Description: SANGER: Inhibition of human T47D cell growth in a cell viability assay.

HO-1-N-1 = assay type: functional, cell-based, Homo sapiens; conditions: Homo sapiens, HO-1-N-1;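 note: growth inhibition of human HO-1-N-1 cells, read out with a cell viability assay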
Description: SANGER: Inhibition of human HO-1-N-1 cell growth in a cell viability assay.

DU-145 = assay type: functional, cell-based, Homo sapiens; conditions: Homo sapiens, DU-145
Description: SANGER: Inhibition of human DU-145 cell growth in a cell viability assay.

D-263MG = assay type: functional, cell-based, Homo sapiens; conditions: Homo sapiens, D-263MG
Description: SANGER: Inhibition of human D-263MG cell growth in a cell viability assay.

HD-MY-Z = assay type: functional, cell-based, Homo sapiens; conditions: Homo sapiens, HD-MY-Z;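 note: growth inhibition of HD-MY-Z cells, read out with a cell viability assay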
Description: SANGER: Inhibition of human HD-MY-Z cell growth in a cell viability assay.

A204 = assay type: functional, cell-based, Homo sapiens; conditions: Homo sapiens, A204;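 note: growth inhibition of human A204 cells, read out with a cell viability assay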
Description: SANGER: Inhibition of human A204 cell growth in a cell viability assay.

SW872 = assay type: functional, cell-based, Homo sapiens; conditions: Homo sapiens, SW872;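 note: growth inhibition of SW872 cells, read out by a viability assay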
Description: SANGER: Inhibition of human SW872 cell growth in a cell viability assay.

SW48 = assay type: functional, cell-based, Homo sapiens; conditions: Homo sapiens, SW48;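 note: growth inhibition of SW48 cells, read out with a cell viability assay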
Description: SANGER: Inhibition of human SW48 cell growth in a cell viability assay.

NCI-H727 = assay type: functional, cell-based, Homo sapiens; conditions: Homo sapiens, NCI-H727;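 note: growth inhibition of human NCI-H727 cells, read out with a cell viability assay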
Description: SANGER: Inhibition of human NCI-H727 cell growth in a cell viability assay.

SHP77 = assay type: functional, cell-based, Homo sapiens, SHP-77; conditions: Homo sapiens, SHP77;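 note: growth inhibition of human SHP-77 cells measured by a cell viability assay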
Description: SANGER: Inhibition of human SHP-77 cell growth in a cell viability assay.

NCI-H69 = assay type: functional, cell-based; conditions: Homo sapiens;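 note: growth inhibition of the cell line, read out with a cell viability assay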
Description: SANGER: Inhibition of human NCI-H69 cell growth in a cell viability assay.

NB12 = assay type: functional, cell-based, Homo sapiens; conditions: Homo sapiens, NB12;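 note: growth inhibition of human NB12 cells, read out by a cell viability assay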
Description: SANGER: Inhibition of human NB12 cell growth in a cell viability assay.

GI-1 = assay type: functional, cell-based, Homo sapiens; conditions: Homo sapiens, GI-1
Description: SANGER: Inhibition of human GI-1 cell growth in a cell viability assay.

ESS-1 = assay type: functional, cell-based, Homo sapiens; conditions: Homo sapiens, ESS-1;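 note: growth inhibition of human ESS-1 cells, read out by a cell viability assay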
Description: SANGER: Inhibition of human ESS-1 cell growth in a cell viability assay.

NH-12 = assay type: functional, cell-based, Homo sapiens; conditions: Homo sapiens, NH-12;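 note: growth inhibition of NH-12 cells, read out with a cell viability assay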
Description: SANGER: Inhibition of human NH-12 cell growth in a cell viability assay.

NCI-H1693 = assay type: functional, cell-based, Homo sapiens; conditions: Homo sapiens, NCI-H1693;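 note: growth inhibition of the human cell line, read out with a cell viability assay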
Description: SANGER: Inhibition of human NCI-H1693 cell growth in a cell viability assay.

MEL-HO = assay type: functional, cell-based, Homo sapiens; conditions: Homo sapiens, MEL-HO
Description: SANGER: Inhibition of human MEL-HO cell growth in a cell viability assay.

CAL-62 = assay type: functional, cell-based, Homo sapiens; conditions: Homo sapiens, CAL-62;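 note: growth inhibition of CAL-62 cells, read out with a cell viability assay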
Description: SANGER: Inhibition of human CAL-62 cell growth in a cell viability assay.

DOK = assay type: functional, cell-based, Homo sapiens; conditions: Homo sapiens, DOK;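 note: cell viability assay read-out, values reflect inhibition of cell growth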
Description: SANGER: Inhibition of human DOK cell growth in a cell viability assay.

KP-N-YS = assay type: functional, cell-based; conditions: Homo sapiens;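 note: cell viability assay measuring inhibition of cell line growth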
Description: SANGER: Inhibition of human KP-N-YS cell growth in a cell viability assay.

697 = assay type: functional, cell-based; conditions: Homo sapiens
Description: SANGER: Inhibition of human 697 cell growth in a cell viability assay.

MN-60 = assay type: functional, cell-based; conditions: Homo sapiens;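 note: growth inhibition of the MN-60 cell line, determined with a cell viability assay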
Description: SANGER: Inhibition of human MN-60 cell growth in a cell viability assay.

Mo = assay type: functional, cell-based; conditions: Homo sapiens
Description: SANGER: Inhibition of human Mo-T cell growth in a cell viability assay.

BCPAP = assay type: functional, cell-based, Homo sapiens; conditions: Homo sapiens, BCPAP;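 note: growth inhibition of BCPAP cells, read out in a cell viability assay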
Description: SANGER: Inhibition of human BCPAP cell growth in a cell viability assay.

JVM-3 = assay type: functional, cell-based; conditions: Homo sapiens;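 note: growth inhibition of human JVM-3 cells, read out with a cell viability assay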
Description: SANGER: Inhibition of human JVM-3 cell growth in a cell viability assay.

ACN = assay type: functional, cell-based, Homo sapiens; conditions: Homo sapiens, ACN;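 note: growth inhibition of the human ACN cell line, read out via cell viability testing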
Description: SANGER: Inhibition of human ACN cell growth in a cell viability assay.

BPH-1 = assay type: functional, cell-based, Homo sapiens; conditions: Homo sapiens, BPH-1;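 note: cell viability assay measuring growth inhibition of human BPH-1 cells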
Description: SANGER: Inhibition of human BPH-1 cell growth in a cell viability assay.

UO-31 = assay type: functional, cell-based; conditions: Homo sapiens;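 note: cell viability assay measuring inhibition of cell growth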
Description: SANGER: Inhibition of human U031 cell growth in a cell viability assay.

COLO-741 = assay type: functional, cell-based, Homo sapiens; conditions: Homo sapiens, COLO-741
Description: SANGER: Inhibition of human COLO-741 cell growth in a cell viability assay.

NCI-H446 = assay type: functional, cell-based; conditions: Homo sapiens;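 note: growth inhibition of NCI-H446 cells determined by a cell viability assay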
Description: SANGER: Inhibition of human NCI-H446 cell growth in a cell viability assay.

D-392MG = assay type: functional, cell-based, Homo sapiens; conditions: Homo sapiens, D-392MG
MMAC-SF = assay type: functional, cell-based, Homo sapiens; conditions: Homo sapiens, MMAC-SF;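 note: growth inhibition of human MMAC-SF cells, read out with a cell viability assay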
Description: SANGER: Inhibition of human MMAC-SF cell growth in a cell viability assay.

MS-1 = assay type: functional, cell-based; conditions: Homo sapiens;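 note: growth inhibition of MS-1 cells, read out by cell viability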
Description: SANGER: Inhibition of human MS-1 cell growth in a cell viability assay.

OCI-AML2 = assay type: functional, cell-based; conditions: Homo sapiens;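 note: growth inhibition of OCI-AML2 cells, read out with a cell viability assay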
Description: SANGER: Inhibition of human OCI-AML2 cell growth in a cell viability assay.

MOLT-4 = assay type: functional, cell-based; conditions: Homo sapiens;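 note: growth inhibition of MOLT-4 cells, determined with a cell viability readout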
Description: SANGER: Inhibition of human MOLT-4 cell growth in a cell viability assay.

DEL = assay type: functional, cell-based; conditions: Homo sapiens;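 note: growth inhibition of the human DEL cell line, read out with a cell viability assay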
Description: SANGER: Inhibition of human DEL cell growth in a cell viability assay.

Hs-578T = assay type: functional, cell-based, Homo sapiens; conditions: Homo sapiens, Hs-578T
Description: SANGER: Inhibition of human Hs-578-T cell growth in a cell viability assay.

COLO-684 = assay type: functional, cell-based; conditions: Homo sapiens
Description: SANGER: Inhibition of human COLO-684 cell growth in a cell viability assay.

HC-1 = assay type: functional, cell-based; conditions: Homo sapiens;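 note: growth inhibition of HC-1 cells measured by a cell viability assay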
Description: SANGER: Inhibition of human HC-1 cell growth in a cell viability assay.

EC-GI-10 = assay type: functional, cell-based, Homo sapiens; conditions: Homo sapiens, EC-GI-10
Description: SANGER: Inhibition of human EC-GI-10 cell growth in a cell viability assay.

UMUC3 = assay type: functional, cell-based, Homo sapiens; conditions: Homo sapiens, UMUC3;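 note: growth inhibition of human UM-UC-3 cells, read out with a cell viability assay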
Description: SANGER: Inhibition of human UM-UC-3 cell growth in a cell viability assay.

For O=C(NOCC1CC1)c1ccc(F)c(F)c1Nc1ccc(I)cc1Cl [CI-1040], the IC50 (HCC38) was greater than 10 µM, the IC50 (P30-OHK) was 9.65 µM and the IC50 (CGTH-W-1) was 3.86 µM. For the same molecule, the IC50 (OE19) was greater than 10 µM, the IC50 (NCI-H1299) was greater than 10 µM and the IC50 (CAL-33) was 5.12 µM. For the same molecule, the IC50 (RO82-W-1) was greater than 10 µM, the IC50 (HCE-T) was 2.83 µM and the IC50 (SK-N-DZ) was greater than 10 µM. It also gave an IC50 (SK-LU-1) of 3.69 µM, an IC50 (CP66-MEL) of 0.488 µM and an IC50 (EKVX) greater than 10 µM. For the same molecule, the IC50 (T47D) was greater than 10 µM, the IC50 (HO-1-N-1) was 1.52 µM and the IC50 (DU-145) was greater than 10 µM. It also gave an IC50 (D-263MG) of 5.88 µM, an IC50 (HD-MY-Z) of 1.57 µM and an IC50 (A204) greater than 10 µM. The IC50 (SW872) was greater than 10 µM, the IC50 (SW48) was 6.95 µM and the IC50 (NCI-H727) was 2.92 µM. The IC50 (SHP77) was greater than 10 µM, the IC50 (NCI-H69) was greater than 10 µM and the IC50 (NB12) was greater than 10 µM. For the same molecule, the IC50 (GI-1) was greater than 10 µM, the IC50 (ESS-1) was greater than 10 µM and the IC50 (NH-12) was 4.72 µM. For the same molecule, the IC50 (NCI-H1693) was 8.92 µM, the IC50 (MEL-HO) was 0.277 µM and the IC50 (CAL-62) was 4.07 µM. It also gave an IC50 (DOK) of 2.36 µM, an IC50 (KP-N-YS) greater than 10 µM and an IC50 697 of 3.7 µM. For the same molecule, the IC50 (MN-60) was greater than 10 µM, the IC50 (Mo) was greater than 10 µM and the IC50 (BCPAP) was 5.33 µM. For the same molecule, the IC50 (JVM-3) was greater than 10 µM, the IC50 (ACN) was 0.267 µM and the IC50 (BPH-1) was 1.9 µM. For the same molecule, the IC50 (UO-31) was greater than 10 µM, the IC50 (COLO-741) was 3.19 µM and the IC50 (NCI-H446) was greater than 10 µM. The IC50 (D-392MG) was greater than 10 µM, the IC50 (MMAC-SF) was 0.11 µM and the IC50 (MS-1) was 8.88 µM. The IC50 (OCI-AML2) was greater than 10 µM, the IC50 (MOLT-4) was greater than 10 µM and the IC50 (DEL) was greater than 10 µM. For the same molecule, the IC50 (Hs-578T) was 5.54 µM, the IC50 (COLO-684) was greater than 10 µM and the IC50 (HC-1) was greater than 10 µM. The IC50 (EC-GI-10) was greater than 10 µM and the IC50 (UMUC3) was 5.18 µM.

With CC(=O)O[C@@]12CO[C@@H]1C[C@H](O)[C@@]1(C)C(=O)[C@H](O)C3=C(C)[C@@H](OC(=O)[C@H](O)[C@@H](NC(=O)OC(C)(C)C)c4ccccc4)C[C@@](O)([C@@H](OC(=O)c4ccccc4)[C@H]21)C3(C)C [DOCETAXEL] the IC50 (HCC38) was 0.006 µM, the IC50 (P30-OHK) was greater than 0.01 µM and the IC50 (CGTH-W-1) was 0.000542 µM. For the same molecule, the IC50 (OE19) was 0.00559 µM, the IC50 (NCI-H1299) was 0.00857 µM and the IC50 (CAL-33) was 0.00104 µM. The IC50 (RO82-W-1) was 0.00531 µM, the IC50 (HCE-T) was 0.000162 µM and the IC50 (SK-N-DZ) was 0.00983 µM. For the same molecule, the IC50 (SK-LU-1) was greater than 0.01 µM, the IC50 (CP66-MEL) was 0.003 µM and the IC50 (EKVX) was greater than 0.01 µM. For the same molecule, the IC50 (T47D) was 0.00431 µM, the IC50 (HO-1-N-1) was 0.000281 µM and the IC50 (DU-145) was greater than 0.01 µM. It also gave an IC50 (D-263MG) of 0.000947 µM, an IC50 (HD-MY-Z) of 0.00141 µM and an IC50 (A204) of 0.00934 µM. For the same molecule, the IC50 (SW872) was greater than 0.01 µM, the IC50 (SW48) was 0.00101 µM and the IC50 (NCI-H727) was greater than 0.01 µM. It also gave an IC50 (SHP77) greater than 0.01 µM, an IC50 (NCI-H69) greater than 0.01 µM and an IC50 (NB12) greater than 0.01 µM. The IC50 (GI-1) was 0.000528 µM, the IC50 (ESS-1) was 0.000179 µM and the IC50 (NH-12) was greater than 0.01 µM. For the same molecule, the IC50 (NCI-H1693) was greater than 0.01 µM, the IC50 (MEL-HO) was greater than 0.01 µM and the IC50 (CAL-62) was 0.000185 µM. For the same molecule, the IC50 (DOK) was 0.00294 µM, the IC50 (KP-N-YS) was greater than 0.01 µM and the IC50 697 was 0.00172 µM. For the same molecule, the IC50 (MN-60) was greater than 0.01 µM, the IC50 (Mo) was greater than 0.01 µM and the IC50 (BCPAP) was 0.000947 µM. It also gave an IC50 (JVM-3) of 0.00233 µM, an IC50 (ACN) of 0.00644 µM and an IC50 (BPH-1) of 0.00102 µM. The IC50 (UO-31) was 0.00307 µM, the IC50 (COLO-741) was 0.0082 µM and the IC50 (NCI-H446) was 0.00243 µM. For the same molecule, the IC50 (D-392MG) was greater than 0.01 µM, the IC50 (MMAC-SF) was 0.00586 µM and the IC50 (MS-1) was greater than 0.01 µM. It also gave an IC50 (OCI-AML2) greater than 0.01 µM, an IC50 (MOLT-4) of 0.00471 µM and an IC50 (DEL) of 0.00301 µM. For the same molecule, the IC50 (Hs-578T) was 0.00272 µM, the IC50 (COLO-684) was greater than 0.01 µM and the IC50 (HC-1) was 0.00656 µM. It also gave an IC50 (EC-GI-10) of 0.000592 µM and an IC50 (UMUC3) greater than 0.01 µM.
